Data taken from the supplement of paper PMC13380429.

Key:
Conditions in all cases: 72 h
[1] = system: Vero E6; assay: cell viability relative to DMSO; higher = less toxic
[2] = system: Calu-3; assay: as above
[3] = system: Caco-2; assay: as above
[4] = system: HepG2; assay: as above
[5] = system: U2OS; assay: as above
[6] = system: Vero E6; assay: drug sensitivity score (DSS) for viability; higher = more toxic; extreme values may be limits of the assay
[7] = system: Calu-3; assay: as above
[8] = system: Caco-2; assay: as above
[9] = system: HepG2; assay: as above
[10] = system: U2OS; assay: as above
[11] = system: Calu-3; assay: relative viability EC50 (midpoint between 100% and the lowest measured viability); higher = less toxic
[12] = system: Caco-2; assay: as above
[13] = system: HepG2; assay: as above
[14] = system: U2OS; assay: as above
[15] = system: Vero E6; assay: as above

Structure (SMILES) | cell viability ([1]; 1 nM) [%] | cell viability ([1]; 10 nM) [%] | cell viability ([1]; 100 nM) [%] | cell viability ([1]; 1000 nM) [%] | cell viability ([1]; 10000 nM) [%] | cell viability ([2]; 1 nM) [%] | cell viability ([2]; 10 nM) [%] | cell viability ([2]; 100 nM) [%] | cell viability ([2]; 1000 nM) [%] | cell viability ([2]; 10000 nM) [%] | cell viability ([3]; 1 nM) [%] | cell viability ([3]; 10 nM) [%] | cell viability ([3]; 100 nM) [%] | cell viability ([3]; 1000 nM) [%] | cell viability ([3]; 10000 nM) [%] | cell viability ([4]; 1 nM) [%] | cell viability ([4]; 10 nM) [%] | cell viability ([4]; 100 nM) [%] | cell viability ([4]; 1000 nM) [%] | cell viability ([4]; 10000 nM) [%] | cell viability ([5]; 1 nM) [%] | cell viability ([5]; 10 nM) [%] | cell viability ([5]; 100 nM) [%] | cell viability ([5]; 1000 nM) [%] | cell viability ([5]; 10000 nM) [%] | drug sensitivity score [6] | drug sensitivity score [7] | drug sensitivity score [8] | drug sensitivity score [9] | drug sensitivity score [10] | relative viability EC50 [11] [µM] | relative viability EC50 [12] [µM] | relative viability EC50 [13] [µM] | relative viability EC50 [14] [µM] | relative viability EC50 [15] [µM]
COc1cc2ncnc(Nc3cccc(Cl)c3F)c2cc1OC(=O)N1CCN(C)C[C@H]1C [AZD3759] | 94.7 | 90.3 | 81.8 | 60.8 | 51.6 | 86.5 | 93.6 | 93.1 | 48.4 | 32.2 | 94.4 | 91.1 | 91.2 | 90.1 | 81.9 | 101 | 86.6 | 104 | 95.8 | 101 | 96.8 | 101 | 95.6 | 95.6 | 92.8 | 9.3 | 10.6 | 1.1 | 0 | 0 | 0.442 | > 10 | > 10 | > 10 | –
CN1CCC(Nc2ncc3ncnc(Nc4ccc(F)c(Cl)c4)c3n2)CC1 [BIBX-1382] | 104 | 104 | 90.1 | 61.7 | 36.2 | 101 | 115 | 95.8 | 70.2 | 27.4 | 99 | 104 | 85.4 | 81.4 | 63.3 | 102 | 93.6 | 98.8 | 95.8 | 68.3 | 99.4 | 104 | 95.9 | 98.9 | 83.8 | 8.4 | 7.6 | 4.4 | 2.1 | 0.4 | 1.21 | – | – | > 10 | 0.634
CC(C)C[C@@H](NC(=O)[C@H](Cc1ccccc1)NC(=O)CNC(=O)[C@@H](C)NC(=O)[C@@H](N)Cc1ccc(O)cc1)C(=O)O [BW-180C] | – | – | – | – | – | 97.6 | 94.5 | 91.1 | 100 | 89.4 | 113 | 96.9 | 98.6 | 102 | 101 | 105 | 98.4 | 99.4 | 102 | 100 | 99.4 | 97.8 | 104 | 104 | 99.1 | – | 0 | 0 | 0 | 0 | > 10 | > 10 | > 10 | > 10 | –
O[C@H]1CC[C@H](Nc2ncc3nc(Nc4c(F)cc(F)cc4F)n([C@H]4CCOC4)c3n2)CC1 [CC-930] | 98.5 | 97 | 98.3 | 93.7 | 73.4 | 101 | 100 | 104 | 87.5 | 81.7 | 99.1 | 102 | 102 | 96.7 | 86.1 | 104 | 102 | 93.5 | 97.1 | 89.6 | 97.3 | 104 | 95 | 96.7 | 91.1 | 2 | 1.6 | 0.4 | 0 | 0 | > 10 | > 10 | > 10 | > 10 | –
